Results as given in paper PMC10789823, “Synthesis, structural characterizations, in vitro biological evaluation and computational investigations of pyrazole derivatives as potential antidiabetic and antioxidant agents” (Scientific Reports, 2024).
Values joined by “and” are separate entries in the source; they are usually repeats but may differ in a detail not shown here. Equal entries are not always repeated. Where two headings read alike, the source gives them in different places.

How the values were obtained:
[1] = ABTS assay; conditions: for IC50: called SC50, mean ± standard deviation (n = 3)
Method: (§1) The antioxidant activities of the title compound were determined in vitro by DPPH, ABTS, FRAP and hydrogen peroxide activity (H2O2) methods according to the procedures described in our previous works.
The ABTS assay was performed as previously described by (Tuberoso et al., 2013). ABTS+ radical was generated by oxidation of ABTS with potassium persulfate. The blue-green ABTS was produced through the reaction between 2 mM ABTS and 70 mM potassium persulfate in water. The mixture was left to stand in the dark for 12–16 h before use. The ABTS+ solution as diluted with methanol to an absorbance of 0.700 ± 0.005 at 734 nm. Then 2 mL of diluted ABTS solution were mixed with 100 μL of samples and absorbance was measured after 1 min incubation at room temperature. A standard curve was obtained by using Ascorbic acid as standard solution.

[2] = Hydrogen peroxide activity (H2O2); conditions: mean ± standard deviation (n = 3)
Method: as §1
The hydrogen-donating activity, measured utilizing hydrogen peroxide radicals as the hydrogen acceptor was performed as previously described by (Muruhan et al., 2013) with minor modifications. Briefly a solution of hydrogen peroxide (40 mM) was prepared in phosphate buffer (pH 7.4). Different concentrations of the prepared compounds (62.5, 31.25, 15.62, 7.81 and 3.9 μM) were added to a hydrogen peroxide solution (0.6 mL, 40 mM). The absorbance of hydrogen peroxide at 230 nm was determined after 10 min against a blank solution containing phosphate buffer without hydrogen peroxide (or ascorbic acid as the control). The hydrogen peroxide percentage activity was then calculated using the following equation: […]

[3] = DPPH radical scavenging activity assay; conditions: called SC50; mean ± standard deviation (n = 3)
Method: as §1
The DPPH radical activity assay was performed following (Huang et al., 2011) with minor modification. The method using the stable free radical 2,2-diphenyl-1-picrylhydrazyl (DPPH) is based upon the reduction of DPPH free radical. Different concentrations of the prepared compounds (500, 250, 125, 62.5, 31.25 µM) were tested. The DPPH solution was prepared by dissolving 3,9mg of DPPH in 50 mL of the methanol. Then, 50µL of each concentration was added to 1,2ml of methanol and 250µL of the prepared DPPH solution […]. The reaction mixture incubated in the dark for 30 min. The control was prepared by adding 1,25 mL of methanol to 250 µL of DPPH. Ascorbic acid was used as the standard. The absorbances of solutions were spectrophotometrically examined at 517 nm. The radical activity is expressed as inhibition ratio of initial concentration of DPPH radical and is calculated according to the formula: […]
Where AbsDPPH is the absorbance of DPPH radical and Abssample is the absorbance in the presence of sample.

[4] = Ferric reducing power assay (FRAP); conditions: mean ± standard deviation (n = 3)
Method: as §1
The ferric ion (Fe^3+) reducing power assay was performed as previously described by (Amarowicz et al., 2004) with minor modifications. Briefly, 1 mL of the samples were mixed with 2.5 mL of 0.2 M sodium phosphate buffer (pH 6.6) and 2.5 mL of 1% potassium ferricyanide. The mixtures were incubated in a […] water bath at 50 °C for 20 min. Then, 2.5 mL of 10% trichloroacetic acid was added and centrifuged at 3000 rpm for 10 min. Finally, 2.5 mL of the supernatant were mixed with 2.5 mL distilled water and 0.5 mL FeCl3 solution (0.1%, w/v). The absorbance was measured at 700 nm and the results were expressed as IC50.

[5] = target: α-glucosidase from Saccharomyces cerevisiae (Saccharomyces cerevisiae, UniProt P53341); assay: biochemical
α-glucosidase from Saccharomyces cerevisiae, sequence (P53341 whole entry): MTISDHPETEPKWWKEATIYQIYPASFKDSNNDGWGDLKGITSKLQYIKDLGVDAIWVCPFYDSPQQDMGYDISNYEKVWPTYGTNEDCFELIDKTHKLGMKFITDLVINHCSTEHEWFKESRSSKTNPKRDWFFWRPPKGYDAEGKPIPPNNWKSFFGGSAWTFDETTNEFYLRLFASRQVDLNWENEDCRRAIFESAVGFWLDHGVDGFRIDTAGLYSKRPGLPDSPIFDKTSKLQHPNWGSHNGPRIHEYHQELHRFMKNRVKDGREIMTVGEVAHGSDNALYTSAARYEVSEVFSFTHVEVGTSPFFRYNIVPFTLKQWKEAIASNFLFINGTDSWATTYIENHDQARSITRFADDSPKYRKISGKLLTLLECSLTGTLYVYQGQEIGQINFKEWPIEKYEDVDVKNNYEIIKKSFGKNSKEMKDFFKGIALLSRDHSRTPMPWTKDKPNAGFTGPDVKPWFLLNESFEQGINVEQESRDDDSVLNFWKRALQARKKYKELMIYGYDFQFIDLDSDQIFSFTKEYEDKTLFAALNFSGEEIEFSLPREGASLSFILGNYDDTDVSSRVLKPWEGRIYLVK
Method: (§2) The α-glucosidase and α-amylase inhibitory activities of compounds Pyz-1 and Pyz-2 were determined using the method described in our previous works[48],[49].
(§3) All other reagents and standards were of analytical reagent grade.
The α-glucosidase inhibitory activity was performed by using (ρ-nitrophenyl-α-D-glucopyranoside) as a substrate according to the method described by (Kee et al., 2013),with minor modifications. The α-glucosidase method is based on the inhibition of the enzyme. α-glucosidase, which hydrolyses (4-Nitrophenyl-α-d-glucopyranoside) to α-d-glucopyranose and P-nitrophenol of yellow color. The target compound was dissolved in DMSO and all the evaluated samples were dissolved in tampon phosphate at a series of concentrations. A mixture of 150 µl of the sample and 100 µl of PBS (pH = 6.7) containing the α- glucosidase enzyme solution (0.1U/ml) was incubated at 37 ° C for 10 min, after incubation, 200µl of pNPG (1 mM) was added to the mixture. The mixtures were incubated at 37 °C for 30 min. Then 1 ml Na2CO3 (0.1 M) was added to stop the reaction. The absorbance was measured at 405 nm. The results were expressed in percentage of inhibition according to the following formula: […]
The same reaction mixture without α-glucosidase was used as negative control.

[6] = target: α-amylase from Bacillus licheniformis (Bacillus licheniformis, UniProt P06278); assay: biochemical; conditions: mean ± standard deviation (n = 3)
α-amylase from Bacillus licheniformis, sequence (P06278 30-512): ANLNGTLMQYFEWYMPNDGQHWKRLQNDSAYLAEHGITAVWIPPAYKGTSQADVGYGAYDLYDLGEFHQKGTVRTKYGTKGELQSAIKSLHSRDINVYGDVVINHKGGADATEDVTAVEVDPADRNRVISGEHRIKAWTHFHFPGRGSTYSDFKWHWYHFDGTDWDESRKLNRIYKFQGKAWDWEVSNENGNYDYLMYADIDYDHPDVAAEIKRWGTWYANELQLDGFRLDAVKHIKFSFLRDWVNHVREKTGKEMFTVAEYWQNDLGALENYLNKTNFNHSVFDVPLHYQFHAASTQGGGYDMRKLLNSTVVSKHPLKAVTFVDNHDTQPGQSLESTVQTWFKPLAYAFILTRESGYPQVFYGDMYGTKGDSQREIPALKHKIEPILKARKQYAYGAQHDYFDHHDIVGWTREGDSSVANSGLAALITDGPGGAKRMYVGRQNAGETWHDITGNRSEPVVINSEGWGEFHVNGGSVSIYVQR
Method: as §2, §3
The α-amylase assay was performed by reacting various concentrations of compounds with α-amylase and starch solution by following the DNSA method with minor modifications (Hashim et al., 2013). The evaluated samples were dissolved in tampon phosphate with various concentrations. The sample solution (10μL) was mixed with 240μL (sodium phosphate buffer 0.02M pH6.9) containing α-amylase (240U/mL), and incubated at 37°C for 20 min. After pre-incubation, 250 µL of 1% starch solution were added to each tube and incubated for 15 min. 1ml of dinitrosalicylic acid was added to stop the reaction, then incubate the solution in a water bath at 90°C for 10 min. The mixture was diluted with 1 mL deionized water and the absorbance (Abs) was measured at 540 nm.
The IC50 values were determined by the percentage of inhibitions at different concentrations.

[7] = target: xanthine oxidase (Homo sapiens, UniProt P47989); assay: Xanthine oxidase inhibition assay (XO); assay type: biochemical; conditions: mean ± standard deviation (n = 3)
xanthine oxidase, sequence (P47989 whole entry, species assumed): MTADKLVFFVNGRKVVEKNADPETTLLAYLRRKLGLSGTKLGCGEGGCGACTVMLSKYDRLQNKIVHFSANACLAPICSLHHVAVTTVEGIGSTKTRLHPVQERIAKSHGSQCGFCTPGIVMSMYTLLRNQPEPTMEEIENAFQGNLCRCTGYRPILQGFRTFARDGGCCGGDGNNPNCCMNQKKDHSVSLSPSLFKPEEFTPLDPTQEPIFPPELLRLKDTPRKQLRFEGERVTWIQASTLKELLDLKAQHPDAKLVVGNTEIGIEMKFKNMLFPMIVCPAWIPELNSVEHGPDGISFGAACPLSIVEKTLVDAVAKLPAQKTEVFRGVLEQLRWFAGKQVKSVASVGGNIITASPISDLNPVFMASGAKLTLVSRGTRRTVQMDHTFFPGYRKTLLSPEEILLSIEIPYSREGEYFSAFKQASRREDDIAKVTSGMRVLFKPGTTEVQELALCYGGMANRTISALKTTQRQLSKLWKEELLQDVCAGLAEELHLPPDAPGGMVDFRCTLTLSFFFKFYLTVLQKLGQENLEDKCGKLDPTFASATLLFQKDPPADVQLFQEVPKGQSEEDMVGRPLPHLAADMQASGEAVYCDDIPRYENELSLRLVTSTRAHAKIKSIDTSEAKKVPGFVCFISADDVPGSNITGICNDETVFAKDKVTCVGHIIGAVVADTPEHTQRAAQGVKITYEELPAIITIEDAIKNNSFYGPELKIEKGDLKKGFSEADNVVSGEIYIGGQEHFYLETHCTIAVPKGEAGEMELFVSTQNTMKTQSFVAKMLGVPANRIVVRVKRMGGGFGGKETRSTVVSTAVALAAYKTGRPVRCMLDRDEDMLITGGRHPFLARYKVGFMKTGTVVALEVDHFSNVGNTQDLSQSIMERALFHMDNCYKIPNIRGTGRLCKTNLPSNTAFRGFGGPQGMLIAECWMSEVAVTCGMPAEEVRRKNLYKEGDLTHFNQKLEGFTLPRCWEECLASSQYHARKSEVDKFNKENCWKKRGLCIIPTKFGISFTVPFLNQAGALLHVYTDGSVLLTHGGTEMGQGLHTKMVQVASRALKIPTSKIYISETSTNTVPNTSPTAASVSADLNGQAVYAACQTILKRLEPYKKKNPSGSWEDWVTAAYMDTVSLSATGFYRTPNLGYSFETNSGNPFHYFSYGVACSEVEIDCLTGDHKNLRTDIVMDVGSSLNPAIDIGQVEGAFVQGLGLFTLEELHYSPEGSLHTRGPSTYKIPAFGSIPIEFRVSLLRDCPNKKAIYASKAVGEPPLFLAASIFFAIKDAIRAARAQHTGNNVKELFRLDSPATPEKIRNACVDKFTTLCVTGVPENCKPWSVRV
Method: The xanthine oxidase inhibitory activity of Pyz-1 and Pyz-2 was performed following the method described by Kostić et al.[50], with minor modifications. The samples were prepared at series of concentrations. 1.95 ml of 5 mM phosphate buffer pH 7.5 and 50 µl of enzyme solution was added to the mixtures. After pre-incubation at 25 °C for 15 min. 1 ml of substrate was added.

[8] = mean ± standard deviation (n = 3), read-out: IC50 α-Glucosidase

IC50 [1]	IC50 [2]	IC50 [3]	IC50 [4]	IC50 [5, 8]	IC50 [6]	Compound	IC50 [7]	IC50 [5]	ABTS scavenging activity relative to Pyz-1 ([1]; ratio of SC50 values, versus Pyz-1)
22.5 ± 0.59 µM	7.45 ± 1.11 µM	78.11 ± 0.68 µM	88.12 ± 0.23 µM			O=C1O[C@H]([C@@H](O)CO)C(O)=C1O [Ascorbic acid, reference compound]			
				279 ± 4.03 µM	> 500 µM	Cc1cc(C(=O)NN)[nH]n1 [Compound 1, 5-methyl-1H-pyrazole-3-carbohydrazide]			
20.5 ± 0.87 µM	24.8 ± 1.23 µM	139 ± 1.45 µM	62.62 ± 0.49 µM	95.85 ± 0.92 µM	119 µM and 120 µM	Cc1cc(-c2nnc(S)n2N)n[nH]1 [Pyz-2, 4-amino-5-(5-methyl-1H-pyrazol-3-yl)-4H-1,2,4-triazole-3-thiol]	10.8 ± 0.54 µM		3.88 fold

Compound	IC50 [1]	IC50 [2]	IC50 [3]	IC50 [4]	IC50 [5, 8]	IC50 [6]	IC50 [7]	IC50 [5]	ABTS scavenging activity relative to Pyz-1 ([1]; ratio of SC50 values, versus Pyz-1)
Cc1cc(C(=O)NNC(=O)Nc2ccccc2)n[nH]1 [Pyz-1, 2-(5-methyl-1H-pyrazole-3-carbonyl)-N-phenylhydrazine-1-carboxamide]	79.77 ± 0.45 µM	31.5 ± 0.92 µM	238.5 ± 1.12 µM	100.2 ± 0.79 µM		120 µM and 119 µM	24.3 ± 0.78 µM	75.62 ± 0.56 µM	
